Results taken from ChEMBL document CHEMBL2046271, “Terpenes from Copaifera demonstrated in vitro antiparasitic and synergic activity” (J Med Chem, 2012).
pEC50, pIC50: −log10 of the molar value. Blank lines part the entries; values can stand above or below the compound they belong to. The source made the active and inactive calls. The rule behind the calls is not given here.

How the values were obtained:
[1] = Toxicity in human RBC assessed as hemolysis after 3 hrs; format: cell-based, Erythrocyte; conditions: red blood cells
[2] = Selectivity ratio of CC50 for monkey LLC-MK2 cells to IC50 for Trypanosoma cruzi Y amastigotes; format: ADME, cell-based; conditions: LLC-MK2 cells versus Trypanosoma cruzi Y amastigotes, read-out: Ratio CC50/IC50
Trypanosoma cruzi [3] = assay: Antitrypanosomal activity against Trypanosoma cruzi Y trymastigotes infected in monkey LLC-MK2 cells after 24 hrs by Brenner counter method; format: functional, organism-based; conditions: LLC-MK2, 24 h
Trypanosoma cruzi [4] = assay: Antitrypanosomal activity against Trypanosoma cruzi Y epimastigotes assessed as gated cells in lower right quadrant at 400 uM after 3 hrs by propidium iodide staining-based flow cytometric analysis (reference value: 5.41%); format: functional
[5] = Cytotoxicity against monkey LLC-MK2 cells after 96 hrs by sulforhodamine B assay; format: cell-based, Macaca mulatta; conditions: rhesus monkey
Trypanosoma cruzi [6] = assay: Antitrypanosomal activity against Trypanosoma cruzi Y epimastigotes assessed as gated cells in lower left quadrant at 400 uM after 3 hrs by rhodamine 123 staining-based flow cytometric analysis (reference value: 2.40%); format: functional
Trypanosoma cruzi [7] = assay: Antitrypanosomal activity against Trypanosoma cruzi Y epimastigotes assessed as gated cells in upper left quadrant at 400 uM after 3 hrs by propidium iodide staining-based flow cytometric analysis (reference value: 3.76%); format: functional
Trypanosoma cruzi [8] = assay: Antitrypanosomal activity against Trypanosoma cruzi Y epimastigotes assessed as gated cells in lower left quadrant at 400 uM after 3 hrs by propidium iodide staining-based flow cytometric analysis (reference value: 89.35%); format: functional
Trypanosoma cruzi [9] = assay: Antitrypanosomal activity against Trypanosoma cruzi Y epimastigotes assessed as lipid peroxidation at 400 uM after 6 hrs; format: functional
Trypanosoma cruzi [10] = assay: Antitrypanosomal activity against Trypanosoma cruzi Y amastigotes infected in monkey LLC-MK2 cells after 96 hrs by Geimsa staining method; format: functional, organism-based; conditions: LLC-MK2, 96 h
Trypanosoma cruzi [11] = assay: Antitrypanosomal activity against Trypanosoma cruzi Y epimastigotes assessed as gated cells in lower right quadrant at 400 uM after 3 hrs by rhodamine 123 staining-based flow cytometric analysis (reference value: 1.12%); format: functional
Trypanosoma cruzi [12] = assay: Antitrypanosomal activity against Trypanosoma cruzi Y epimastigotes after 96 hrs by neubauer chamber; format: functional, organism-based
Trypanosoma cruzi [13] = assay: Antitrypanosomal activity against Trypanosoma cruzi Y epimastigotes assessed as gated cells in upper left quadrant at 400 uM after 3 hrs by rhodamine 123 staining-based flow cytometric analysis (reference value: 1.54%); format: functional
Trypanosoma cruzi [14] = assay: Antitrypanosomal activity against Trypanosoma cruzi Y epimastigotes assessed as gated cells in upper right quadrant at 400 uM after 3 hrs by propidium iodide staining-based flow cytometric analysis (reference value: 1.40%); format: functional
Trypanosoma cruzi [15] = assay: Antitrypanosomal activity against Trypanosoma cruzi Y epimastigotes assessed as gated cells in upper right quadrant at 400 uM after 3 hrs by rhodamine 123 staining-based flow cytometric analysis (reference value: 94.94%); format: functional
Trypanosoma cruzi [16] = assay: Antitrypanosomal activity against Trypanosoma cruzi Y infected in monkey LLC-MK2 cells assessed as reduction in number of amastigotes after 96 hrs by Geimsa staining method; format: functional; parameters: concentration or dose not given beside the values
[17] = Toxicity in human RBC assessed as hemolysis at 1552 uM after 3 hrs; format: cell-based, Erythrocyte; conditions: red blood cells, read-out: Activity
Trypanosoma cruzi [18] = assay: Antitrypanosomal activity against Trypanosoma cruzi Y epimastigotes assessed as formation of concentric membranous vacuoles at compound IC50 concentration after 96 hrs by transmission electron microscopic analysis; format: functional, organism-based
Trypanosoma cruzi [19] = assay: Antitrypanosomal activity against Trypanosoma cruzi Y trymastigotes infected in monkey LLC-MK2 cells after 24 hrs by Brenner counter method in presence of copalic; format: functional
Trypanosoma cruzi [20] = assay: Antitrypanosomal activity against Trypanosoma cruzi Y epimastigotes assessed as kinetoplast disorganisation at compound IC50 concentration after 96 hrs by transmission electron microscopic analysis; format: functional, organism-based
Trypanosoma cruzi [21] = assay: Antitrypanosomal activity against Trypanosoma cruzi Y trymastigotes infected in monkey LLC-MK2 cells after 24 hrs by Brenner counter method in presence of beta-hydroxycopalic; format: functional
Trypanosoma cruzi [22] = assay: Antitrypanosomal activity against Trypanosoma cruzi Y epimastigotes assessed as pronounced swelling of mitochondria at compound IC50 concentration after 96 hrs by transmission electron microscopic analysis; format: functional, organism-based
Trypanosoma cruzi [23] = assay: Antitrypanosomal activity against Trypanosoma cruzi Y epimastigotes assessed as membranous vacuole formation in all body parts at compound IC50 concentration after 96 hrs by transmission electron microscopic analysis; format: functional, organism-based
Trypanosoma cruzi [24] = assay: Antitrypanosomal activity against Trypanosoma cruzi Y epimastigotes assessed as organelle disorganization at compound IC50 concentration after 96 hrs by transmission electron microscopic analysis; format: functional, organism-based

Compound: C=C1C[C@@]23CC[C@H]4[C@@](C)(CCC[C@@]4(C)C(=O)O)[C@@H]2CC[C@@H]1C3 [KAURENOIC ACID]
HC50 at 3 h [1]: 464 µM
selectivity ratio [2]: 4.6
pEC50 (Trypanosoma cruzi [3]): 3.22
Activity (Trypanosoma cruzi [4]): 13.27%
CC50 at 96 h [5]: 76.1 µM
Activity (Trypanosoma cruzi [6]): 4.85%
Activity (Trypanosoma cruzi [7]): 45.55%
Activity (Trypanosoma cruzi [8]): 22.65%
Activity (Trypanosoma cruzi [9]): inactive
pIC50 (Trypanosoma cruzi [10]): 4.78
Activity (Trypanosoma cruzi [11]): 0.96%
pIC50 (Trypanosoma cruzi [12]): 3.78
Activity (Trypanosoma cruzi [13]): 2.55%
Activity (Trypanosoma cruzi [14]): 18.53%
Activity (Trypanosoma cruzi [15]): 91.64%
Activity (Trypanosoma cruzi [16]): 38%

Compound: C=C1CC/C=C(\C)CC[C@@H]2[C@@H]1CC2(C)C [BETA-CARYOPHYLLENE]
HC50 at 3 h [1]: > 2450 µM
selectivity ratio [2]: 26.9
Activity (Trypanosoma cruzi [18]): Active
pEC50 (Trypanosoma cruzi [3]): 2.80
Activity (Trypanosoma cruzi [4]): 0.26%
fractional inhibitory concentration index (FICI) (Trypanosoma cruzi [19]): 0.12
CC50 at 96 h [5]: 1720 µM
Activity (Trypanosoma cruzi [6]): 52.01%
Activity (Trypanosoma cruzi [20]): Active
Activity (Trypanosoma cruzi [7]): 78.81%
Activity (Trypanosoma cruzi [8]): 9.53%
Activity (Trypanosoma cruzi [9]): 30%
pIC50 (Trypanosoma cruzi [10]): 4.20
Activity (Trypanosoma cruzi [11]): 15.47%
pIC50 (Trypanosoma cruzi [12]): 4.11
Activity (Trypanosoma cruzi [13]): 3.17%
Activity (Trypanosoma cruzi [14]): 11.4%
Activity (Trypanosoma cruzi [15]): 29.35%
fractional inhibitory concentration index (FICI) (Trypanosoma cruzi [21]): 0.86
Activity (Trypanosoma cruzi [16]): 25%

Compound: C[C@@H]1[C@H](O)[C@@H](C)/C=C/C=C/C=C/C=C/C=C/C=C/C=C/[C@H](O[C@@H]2O[C@H](C)[C@@H](O)[C@H](N)[C@@H]2O)C[C@@H]2O[C@](O)(C[C@@H](O)C[C@@H](O)[C@H](O)CC[C@@H](O)C[C@@H](O)CC(=O)O[C@H]1C)C[C@H](O)[C@H]2C(=O)O [AMPHOTERICIN B]
HC50 at 3 h [1]: 50.8 µM

Compound: O=C(Cn1ccnc1[N+](=O)[O-])NCc1ccccc1 [BENZNIDAZOLE]
HC50 at 3 h [1]: > 1920 µM
selectivity ratio [2]: 32
pEC50 (Trypanosoma cruzi [3]): 4.46
fractional inhibitory concentration index (FICI) (Trypanosoma cruzi [19]): 0.95
CC50 at 96 h [5]: 615 µM
pIC50 (Trypanosoma cruzi [10]): 4.72
pIC50 (Trypanosoma cruzi [12]): 5.19
fractional inhibitory concentration index (FICI) (Trypanosoma cruzi [21]): 1.01

Continued, in another order:

pIC50 (Trypanosoma cruzi [10]): 4.83
pIC50 (Trypanosoma cruzi [12]): 4.06
Compound: C=C1CC[C@@H]2[C@](C)(CCC[C@]2(C)C(=O)O)[C@H]1CC/C(C)=C/C(=O)O [AGATHIC ACID]
HC50 at 3 h [1]: 1050 µM
selectivity ratio [2]: 3.8
pEC50 (Trypanosoma cruzi [3]): 3.08
Activity (Trypanosoma cruzi [4]): 2.51%
CC50 at 96 h [5]: 56.8 µM
Activity (Trypanosoma cruzi [6]): 2.07%
Activity (Trypanosoma cruzi [7]): 50.32%
Activity (Trypanosoma cruzi [8]): 14.2%
Activity (Trypanosoma cruzi [9]): inactive
Activity (Trypanosoma cruzi [11]): 0.45%
Activity (Trypanosoma cruzi [13]): 13.37%
Activity (Trypanosoma cruzi [14]): 32.97%
Activity (Trypanosoma cruzi [15]): 84.11%
Activity (Trypanosoma cruzi [16]): 38%

pIC50 (Trypanosoma cruzi [10]): 4.55
pIC50 (Trypanosoma cruzi [12]): 3.78
Compound: C=C1CC[C@@H]2[C@](C)(CCC[C@@]2(C)C(=O)O)[C@H]1CCc1ccoc1 [POLYALTIC ACID]
HC50 at 3 h [1]: > 1580 µM
selectivity ratio [2]: 2.1
pEC50 (Trypanosoma cruzi [3]): 3.02
Activity (Trypanosoma cruzi [4]): 25.8%
CC50 at 96 h [5]: 60.1 µM
Activity (Trypanosoma cruzi [6]): 1.85%
Activity (Trypanosoma cruzi [7]): 16.7%
Activity (Trypanosoma cruzi [8]): 26.71%
Activity (Trypanosoma cruzi [9]): inactive
Activity (Trypanosoma cruzi [11]): 0.91%
Activity (Trypanosoma cruzi [13]): 1.28%
Activity (Trypanosoma cruzi [14]): 29.09%
Activity (Trypanosoma cruzi [15]): 95.96%
Activity (Trypanosoma cruzi [16]): 38%

pIC50 (Trypanosoma cruzi [10]): 4.73
pIC50 (Trypanosoma cruzi [12]): 3.07
Compound: C=C1CC[C@@H]2[C@](C)(CCC[C@@]2(C)C(=O)O)[C@H]1CC[C@H](C)CC(=O)O [PINIFOLIC ACID]
HC50 at 3 h [1]: > 1550 µM
selectivity ratio [2]: 13.5
pEC50 (Trypanosoma cruzi [3]): 2.79
Activity (Trypanosoma cruzi [4]): 3.85%
CC50 at 96 h [5]: 252 µM
Activity (Trypanosoma cruzi [6]): 1.02%
hemolysis at 3 h, 1552 µM [17]: 8%
Activity (Trypanosoma cruzi [7]): 3.78%
Activity (Trypanosoma cruzi [8]): 91.66%
Activity (Trypanosoma cruzi [9]): inactive
Activity (Trypanosoma cruzi [11]): 0.21%
Activity (Trypanosoma cruzi [13]): 0.81%
Activity (Trypanosoma cruzi [14]): 0.71%
Activity (Trypanosoma cruzi [15]): 97.96%
Activity (Trypanosoma cruzi [16]): 25%

pIC50 (Trypanosoma cruzi [10]): 5.89
pIC50 (Trypanosoma cruzi [12]): 4.37
Compound: C=C1CC[C@@H]2C(C)(C)CCC[C@@]2(C)[C@@H]1CC/C(C)=C/C(=O)O [COPALIC ACID]
HC50 at 3 h [1]: 65.7 µM
selectivity ratio [2]: 30.3
pEC50 (Trypanosoma cruzi [3]): 3.35
Activity (Trypanosoma cruzi [4]): 0.71%
CC50 at 96 h [5]: 39.4 µM
Activity (Trypanosoma cruzi [6]): 2.86%
Activity (Trypanosoma cruzi [7]): 43.58%
Activity (Trypanosoma cruzi [8]): 5.17%
Activity (Trypanosoma cruzi [9]): 30%
Activity (Trypanosoma cruzi [11]): 0.1%
Activity (Trypanosoma cruzi [22]): Active
Activity (Trypanosoma cruzi [13]): 24.47%
Activity (Trypanosoma cruzi [14]): 50.54%
Activity (Trypanosoma cruzi [15]): 72.57%
Activity (Trypanosoma cruzi [16]): 48%

pIC50 (Trypanosoma cruzi [10]): 5.60
pIC50 (Trypanosoma cruzi [12]): 4.08
Compound: C=C1CC[C@@H]2C(C)(C)CCC[C@@]2(C)[C@@H]1CC/C(C)=C/C(=O)OC [METHYL COPALATE]
HC50 at 3 h [1]: 1600 µM
selectivity ratio [2]: 27.6
pEC50 (Trypanosoma cruzi [3]): 3.42
Activity (Trypanosoma cruzi [4]): 9.22%
CC50 at 96 h [5]: 69.1 µM
Activity (Trypanosoma cruzi [6]): 0.66%
Activity (Trypanosoma cruzi [7]): 2.62%
Activity (Trypanosoma cruzi [8]): 85.91%
Activity (Trypanosoma cruzi [9]): inactive
Activity (Trypanosoma cruzi [11]): 0.21%
Activity (Trypanosoma cruzi [13]): 0.64%
Activity (Trypanosoma cruzi [14]): 2.25%
Activity (Trypanosoma cruzi [15]): 98.49%
Activity (Trypanosoma cruzi [16]): 38%

pIC50 (Trypanosoma cruzi [10]): 5.74
pIC50 (Trypanosoma cruzi [12]): 4.39
Compound: C=C1CC[C@@H]2C(C)(C)[C@@H](O)CC[C@@]2(C)[C@@H]1CC/C(C)=C/C(=O)O
HC50 at 3 h [1]: 125 µM
selectivity ratio [2]: 17.3
pEC50 (Trypanosoma cruzi [3]): 3.34
Activity (Trypanosoma cruzi [4]): 0.15%
Activity (Trypanosoma cruzi [23]): Active
CC50 at 96 h [5]: 31.2 µM
Activity (Trypanosoma cruzi [6]): 2.27%
Activity (Trypanosoma cruzi [7]): 73%
Activity (Trypanosoma cruzi [8]): 2.56%
Activity (Trypanosoma cruzi [9]): inactive
Activity (Trypanosoma cruzi [11]): 0.01%
Activity (Trypanosoma cruzi [13]): 24.06%
Activity (Trypanosoma cruzi [24]): Active
Activity (Trypanosoma cruzi [14]): 24.29%
Activity (Trypanosoma cruzi [15]): 73.66%
Activity (Trypanosoma cruzi [16]): 40%
